Source: patent US11053204B2, “Pyrimidinyloxy benzene derivatives as herbicides” (FMC Corporation, priority 2015, dated 2021)

Legend:
Assay type in all cases: in vivo
[1] = system: nutsedge, yellow (yellow nutsedge, Cyperus esculentus); assay: Test C postemergence, plant response rating; settings: for Nutsedge, Yellow plant response rating: scale 0 to 100 (0 no effect, 100 complete control)
Outline: (§1)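 Both timings shared one formulation, a non-phytotoxic solvent mixture with surfactant, and a greenhouse period of 13 to 15 d. Preemergence used seeded loam/sand or silt loam soil, postemergence used 2 to 18 cm plants; visual ratings ran from 0 (no effect) to 100 (complete control).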

[2] = system: ryegrass, Italian (Italian ryegrass, Lolium multiflorum); assay: Test C postemergence, plant response rating; settings: for Ryegrass, Italian plant response rating: scale 0 to 100 (0 no effect, 100 complete control)
Outline: as §1

corn (Zea mays) = assay: Test C postemergence, plant response rating; settings: for Corn plant response rating: scale 0 to 100 (0 no effect, 100 complete control)
Outline: as §1

[3] = system: wheat (winter wheat, Triticum aestivum); assay: Test C postemergence, plant response rating
Outline: as §1

[4] = system: foxtail, giant (giant foxtail, Setaria faberii); assay: Test C postemergence, plant response rating; settings: for Foxtail, Giant plant response rating: scale 0 to 100 (0 no effect, 100 complete control)
Outline: as §1

[5] = system: crabgrass, large (large crabgrass, Digitaria sanguinalis); assay: Test C postemergence, plant response rating; settings: for Crabgrass, Large plant response rating: scale 0 to 100 (0 no effect, 100 complete control)
Outline: as §1

[6] = system: oat, wild (wild oat Avena fatua); assay: Test C postemergence, plant response rating; settings: for Oat, Wild plant response rating: scale 0 to 100 (0 no effect, 100 complete control)
Outline: as §1

soybean (Glycine max) = assay: Test C postemergence, plant response rating; settings: for Soybean plant response rating: scale 0 to 100 (0 no effect, 100 complete control)
Outline: as §1

[7] = system: galium (catchweed bedstraw, Galium aparine); assay: Test C postemergence, plant response rating; settings: for Galium plant response rating: scale 0 to 100 (0 no effect, 100 complete control)
Outline: as §1

[8] = system: chickweed (common chickweed, Stellaria media); assay: Test C postemergence, plant response rating; settings: for Chickweed plant response rating: scale 0 to 100 (0 no effect, 100 complete control)
Outline: as §1

[9] = system: blackgrass (Alopecurus myosuroides); assay: Test C postemergence, plant response rating; settings: for Plant response rating, Blackgrass: scale 0 to 100; for Blackgrass plant response rating: scale 0 to 100 (0 no effect, 100 complete control)
Outline: as §1

[10] = system: lambsquarters (Chenopodium album); assay: Test C postemergence, plant response rating; settings: for Lambsquarters plant response rating: scale 0 to 100 (0 no effect, 100 complete control)
Outline: as §1

[11] = system: barnyardgrass (Echinochloa crus-galli); assay: Test A preemergence, visual injury rating
Outline: (§2)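 Greenhouse pot test, loam/sand soil. Formulation: non-phytotoxic solvent mix plus surfactant. Pre: directed spray onto soil after sowing. Post: plants at 1–2 leaf, 2–10 cm. Rated visually vs untreated controls at ~10 d, 0 (no effect) to 100 (complete control).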

kochia (Kochia scoparia) = assay: Test A preemergence, visual injury rating
Outline: as §2

[12] = system: pigweed (Amaranthus retroflexus); assay: Test A preemergence, visual injury rating
Outline: as §2

[13] = system: Italian ryegrass (Lolium multiflorum); assay: Test A preemergence, visual injury rating
Outline: as §2

[14] = system: ragweed (common ragweed, Ambrosia elatior); assay: Test A preemergence, visual injury rating
Outline: as §2

[15] = system: giant foxtail (Setaria faberii); assay: Test A preemergence, visual injury rating
Outline: as §2

[16] = 31 g ai/ha, 0 to 100 scale, 0 no effect, 100 complete control
[17] = 125 g ai/ha, 0 to 100 scale (0 no effect, 100 complete control)

FC(F)(F)CCCCc1c(Br)cccc1Oc1ncc(Cl)cn1 [Compound 138]
100: Chickweed plant response rating ([8]; 62 g ai/ha) | Chickweed plant response rating ([8]; 125 g ai/ha) | Lambsquarters plant response rating ([10]; 125 g ai/ha) | Plant response rating, Barnyardgrass [11, 17] | Plant response rating, Kochia (kochia (Kochia scoparia); [17]) | Plant response rating, Pigweed [12, 17] | Plant response rating, Ryegrass, Italian [13, 17] | Plant response rating, Foxtail, Giant [15, 17]
35: Ryegrass, Italian plant response rating ([2]; 125 g ai/ha) | Wheat plant response rating ([3]; 125 g ai/ha, scale 0 to 100 (0 no effect, 100 complete control)) | Plant response rating, Crabgrass, Large ([5]; 16 g ai/ha, scale of 0 to 100) | Plant response rating, Soybean (soybean (Glycine max); 16 g ai/ha, scale of 0 to 100) | Plant response rating, Blackgrass ([9]; 31 g ai/ha)
20: Plant response rating, Corn (corn (Zea mays); 31 g ai/ha, scale 0 to 100) | Plant response rating, Foxtail, Giant ([4]; 31 g ai/ha, scale 0 to 100)
75: Plant response rating, Chickweed ([8]; 16 g ai/ha, scale of 0 to 100)
30: Nutsedge, Yellow plant response rating ([1]; 125 g ai/ha) | Ryegrass, Italian plant response rating ([2]; 62 g ai/ha) | Corn plant response rating (corn (Zea mays); 125 g ai/ha) | Foxtail, Giant plant response rating ([4]; 62 g ai/ha)
90: Plant response rating, Lambsquarters ([10]; 31 g ai/ha, scale 0 to 100) | Plant response rating, Foxtail, Giant [15, 16]
0: Plant response rating, Nutsedge, Yellow ([1]; 16 g ai/ha, scale of 0 to 100) | Plant response rating, Nutsedge, Yellow ([1]; 31 g ai/ha, scale 0 to 100) | Plant response rating, Ragweed [14, 16] | Plant response rating, Ragweed [14, 17]
15: Plant response rating, Corn (corn (Zea mays); 16 g ai/ha, scale of 0 to 100)
65: Foxtail, Giant plant response rating ([4]; 125 g ai/ha) | Plant response rating, Crabgrass, Large ([5]; 31 g ai/ha, scale 0 to 100) | Plant response rating, Galium ([7]; 16 g ai/ha, scale of 0 to 100) | Blackgrass plant response rating ([9]; 125 g ai/ha) | Plant response rating, Lambsquarters ([10]; 16 g ai/ha, scale of 0 to 100)
95: Crabgrass, Large plant response rating ([5]; 125 g ai/ha) | Lambsquarters plant response rating ([10]; 62 g ai/ha)
10: Nutsedge, Yellow plant response rating ([1]; 62 g ai/ha) | Plant response rating, Foxtail, Giant ([4]; 16 g ai/ha, scale of 0 to 100) | Plant response rating, Oat, Wild ([6]; 16 g ai/ha, scale of 0 to 100) | Blackgrass plant response rating ([9]; 62 g ai/ha) | Plant response rating, Ryegrass, Italian [13, 16]
85: Crabgrass, Large plant response rating ([5]; 62 g ai/ha) | Galium plant response rating ([7]; 125 g ai/ha) | Plant response rating, Chickweed ([8]; 31 g ai/ha, scale 0 to 100)
25: Corn plant response rating (corn (Zea mays); 62 g ai/ha)
5: Plant response rating, Ryegrass, Italian ([2]; 16 g ai/ha, scale of 0 to 100) | Plant response rating, Ryegrass, Italian ([2]; 31 g ai/ha, scale 0 to 100) | Plant response rating, Wheat ([3]; 16 g ai/ha, scale of 0 to 100) | Plant response rating, Wheat ([3]; 31 g ai/ha, scale 0 to 100) | Plant response rating, Blackgrass ([9]; 16 g ai/ha)
55: Plant response rating, Oat, Wild ([6]; 31 g ai/ha, scale 0 to 100) | Plant response rating, Soybean (soybean (Glycine max); 31 g ai/ha, scale 0 to 100) | Soybean plant response rating (soybean (Glycine max); 125 g ai/ha)
70: Oat, Wild plant response rating ([6]; 125 g ai/ha) | Plant response rating, Barnyardgrass [11, 16]
60: Soybean plant response rating (soybean (Glycine max); 62 g ai/ha)
50: Oat, Wild plant response rating ([6]; 62 g ai/ha) | Plant response rating, Kochia (kochia (Kochia scoparia); [16])
80: Plant response rating, Galium ([7]; 31 g ai/ha, scale 0 to 100) | Galium plant response rating ([7]; 62 g ai/ha) | Plant response rating, Pigweed [12, 16]
